Where two headings read alike, the source gives them in different places. No end group written: not given here.
What was measured:
ion channel = settings: from manufacturer's data sheets and/or the literature; cited from earlier work
[1] = system: normal resting human T-cells; experiment: Cytokine (TNFα, IFNγ, IL-10, IL-4) secretion by resting T-cells, sandwich ELISA; assay type: cell-based; settings: for cytokine secretion profile (TNFα, IFNγ, IL-4, IL-10): data not shown; for TNFα secretion in resting normal human T-cells: highest concentration used (DTX-K 100 nM), FIG. 18a
Method: Human T-cells: Normal human T-cells were purified from peripheral blood of healthy donors as described (19, 23, 61), and the resulting cell population, containing ≧90% T-cells, was suspended in RPMI medium supplemented with 10% FCS, 1% LGlutamine and antibiotics (Biological Industries, Bet Haemek, Israel) and maintained at 2×10^6 cells/ml (37° C./5% CO2).
Determination of TNFα, IFNγ, IL-10 and IL-4 by ELISA: Freshly-purified normal resting human T-cells (2×10^6/ml) were incubated in 24-well plates (Costar, Corning, N.Y.) and the various channel blockers were added. Importantly, no other stimulating molecule (e.g. phorbol esters, antigens, anti-CD3/CD28 mAbs) was added. Cytokine […] levels were measured in supernatants after 24 hr for TNFα and IFNγ and after 72 hr for IL-10 and IL-4, by quantitative sandwich ELISA (R&D, Minneapolis, Minn.), according to the manufacturer's instructions.

Normal human T-cells = assay type: cell-based
Method: Normal human T-cells, isolated from fresh peripheral blood lymphocytes, were treated with 10 nM of neurotransmitters: either GnRH-II or dopamine (30 min or 24 hr at 37° C.). Following this neurotransmitter treatment, the T-cells were washed with phosphate-buffered saline (PBS) and […] with paraformaldehyde (PFA) for 20 min at room temperature (1×10^6 cells resuspended in 50 μl PBS+100 μl 0.5% PFA). The T-cells were then washed again with PBS and subjected to single immunofluorescence staining, using a mouse anti-human TCR/CD3zeta chain subunit (also called CD247) mAb (Serotec) at 1:100 dilution/1×10^6 cells, diluted in 10 μg/ml digitonin (Sigma) cold solution, for 30 min on ice. For isotype control, cells were stained with normal mouse serum (Jackson Immunoresearch Laboratories). The cells were then stained with a fluorescein isothiocyanate (FITC)-conjugated anti-mouse IgG (100 μl of 1:100 dilution; Jackson). Cells stained with the second Ab only served as additional negative controls. Fluorescence profiles were recorded in a FACSort.

[2] = system: human cancer growing in SCID mice; assay type: in vivo
human T-cells = settings: data not shown
[3] = SCID mice, preliminary evidence

For O=C(O)c1cc([N+](=O)[O-])ccc1NCCCc1ccccc1 [NPPB], the effective concentrations (ion channel) is listed as 100 to 200 µM.

For CCCCCCCCCCCCCC(=O)O[C@@H]1[C@@H](C)[C@@]2(O)[C@@H](C=C(CO)C[C@]3(O)C(=O)C(C)=C[C@@H]23)[C@@H]2C(C)(C)[C@]12OC(C)=O [PMA], the “cytokine secretion profile (TNFα, IFNγ, IL-4, IL-10)” value [1] was “increased secretion of TNFα, IFNγ, IL-4 and IL-10”.

For C=C[C@H]1C[N@@]2CC[C@H]1C[C@H]2[C@H](O)c1ccnc2ccc(OC)cc12 [Quinine], the “TNFα secretion in resting normal human T-cells” value ([1]; 24 hours exposure) is given as “somewhat weaker effect” and the effective concentrations (ion channel) is given as 1 to 10 µM.

In the case of NCCc1ccc(O)c(O)c1 [dopamine], the “number (percentage) of cells expressing CD3zeta” value (Normal human T-cells) was “clear increase”, the “number of T-cells expressing CD3zeta, longer-term exposure versus 30 minutes” value (Normal human T-cells) was “significantly more pronounced” and the “overall in vivo activity of human tumor-specific T-cells against human cancer (cancer rejection)” value (from here on “overall in vivo activity”) ([2]; mouse, in vivo) was “augmented significantly”.

In the case of N[C@@H](CCC(=O)O)C(=O)O [glutamate], the “overall in vivo activity” value [2, 3] was “augmented significantly”.

For Dendrotoxin-K, the “dose dependence of TNFα secretion triggering” value ([1]; 24 hours exposure, FIG. 18b) was “dose dependent”, the “TNFα secretion in resting normal human T-cells” value ([1]; 24 hours exposure) was “marked TNFα secretion” and the “TNFα secretion by T-cells from six different individuals” value ([1]; 24 hr, 100 nM, FIG. 18c-h) was “triggered marked TNFα secretion”. The “cytokine secretion profile (TNFα, IFNγ, IL-4, IL-10)” value [1] was “selectively increased only TNFα secretion”, the “effect on cell survival of human T-cells” value (human T-cells) was “no significant effect” and the “effect on proliferation of human T-cells” value (human T-cells) was “no significant effect”.

In the case of “GnRH-II (QHWSHGWYPG; ends and bridges not checked; UniProt O43555 24-33, looked up)”, the “intensity of CD3zeta expression (number of CD3zeta per T-cell)” value (Normal human T-cells; 10 nM, 30 minutes exposure) was “very significant increase”, the “number (percentage) of cells expressing CD3zeta” value (Normal human T-cells; 10 nM, 30 minutes exposure, no other molecules) was “very significant increase” and the “overall in vivo activity” value [2, 3] was “augmented significantly”.

In the case of Kaliotoxin, the “TNFα secretion in resting normal human T-cells” value ([1]; 24 hours exposure) is given as “somewhat weaker effect” and the effective concentrations (ion channel) is given as 0.001 to 0.1 µM.

From patent US20090221069A1, “METHOD FOR AUGMENTING THE ABILITY OF T-CELLS AND OTHER CELLS FOR FIGHTING DISEASE AND INVADE DISEASED ORGANS, FOR ELEVATING CD3 ZETA AND TNF-ALPHA EXPRESSION IN T-CELLS, AND MIXING T-CELL BOOSTING AND KIT PARTICULARLY USEFUL IN SUCH METHOD” (priority 2005, published 2009)
